Data: PMC7409197, “Adenosine Receptors as Neuroinflammation Modulators: Role of A1 Agonists and A2A Antagonists” (Cells, 2020)

Columns and labels:
A2AAR [1] = biological target: T1, A2AAR (Homo sapiens, UniProt P29274); assay: A2AAR functional antagonism (IC50), method not described; format: biochemical; details: unpublished results of the authors; read-out: IC50A2AAR
A3AR = biological target: T2, A3AR (Homo sapiens, UniProt P0DMS8); assay: A3AR affinity (Ki), method not described; format: binding; details: unpublished results of the authors; read-out: KiA3AR
T2 sequence (P0DMS8 1-318): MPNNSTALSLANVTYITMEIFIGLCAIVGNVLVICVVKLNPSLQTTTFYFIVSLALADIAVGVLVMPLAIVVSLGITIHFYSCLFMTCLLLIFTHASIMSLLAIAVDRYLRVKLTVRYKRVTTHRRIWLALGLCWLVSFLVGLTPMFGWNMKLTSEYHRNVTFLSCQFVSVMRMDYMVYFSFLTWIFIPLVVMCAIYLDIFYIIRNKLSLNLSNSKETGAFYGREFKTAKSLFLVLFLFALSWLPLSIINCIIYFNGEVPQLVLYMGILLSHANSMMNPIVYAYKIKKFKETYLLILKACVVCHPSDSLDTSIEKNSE

Sprague Dawley rats = assay: Y Maze short-term memory in LPS neuroinflammation rat model; format: in vivo; details: for short-term memory impairment by LPS (novel arm preference, Y Maze) / short-term memory performance, compound alone (Y Maze): rats; for short-term memory performance, compound alone (Y Maze): saline instead of LPS
Method: Animal procedures were performed in accordance with the European Community guidelines (Directive 2010/63/EU), Portuguese law on animal care (DL 113/2013), and approved by the Instituto de Medicina Molecular Internal Committee and the Portuguese Animal Ethics Committee (Direcção Geral de Veterinária). Environmental conditions were kept constant: food and water ad libitum, 21 ± 0.5 °C, 60% ± 10% relative humidity, 12 h light/dark cycles, 3–5 rats per double-decker ventilated cage. Male Sprague Dawley rats 8 weeks old were divided into the following groups (Table 1):
C1 was dissolved in 5% DMSO + 95% H2O to a final concentration of 7 mg/mL and C2 was dissolved in DMSO to a final concentration of 5 mg/mL. Accordingly, vehicle for G1 was 5% DMSO + 95% H2O and for G2 was DMSO.
Animals were anesthetized with a cocktail of 75 mg/kg ketamine + 1 mg/kg dexmedetomidine. Once rats were deeply anesthetized, the head was fixed into a stereotaxic frame and an incision made on the scalp to expose the skull. Coordinates for injection were AP -1.0, ML ± 1.5, DV -3.7 mm. For G1, LPS was delivered bilaterally 5 µL of a 1 µg/µL LPS solution per hemisphere, and C1 was delivered also i.c.v. 15 min before the LPS injection, 5 µL of a 7 µg/µL solution. Flow rate was kept at 1 µL/min, using an automatic injector coupled to a 10 µL hamilton syringe gauge 30. After each injection, 5 min were allowed for diffusion of the drugs before slowly removing the needle. After the procedure, rats were sutured, administered atipamezole (1 mg/kg) to reverse anesthesia, and brought back to a heated cage until fully recovered. For G2, rats were injected i.p. with a 2.5 mg/kg solution of C2, 30 min after the i.c.v. injection of LPS 5 µg/5 µL per hemisphere, in total of 10 µg. Rats were monitored for sickness behavior (body temperature, general activity) and given access to gel food in the first 48 h.
Y Maze is a behavior test useful to measure short-term spatial working memory. Animals are introduced in the maze always in the same starting position, at the end of the start arm. An initial habituation phase of 8 min, animals freely explore 2 of the arms, the 3rd being closed. Sixty minutes after the habituation period animals are placed again in the maze for 5 min this time with all 3 arms available to exploration. Using the Smart video tracing software, each animal’s route was registered. The time spent in the arm initially closed, which for the animal is the novel, unexplored environment, is calculated in relation to the time spent in the already familiar arms.

A2AAR [2] = biological target: T1, A2AAR; assay: A2AAR affinity (Ki), method not described; format: binding; details: unpublished results of the authors; read-out: KiA2AAR
mixed glial cells = assay: Trypan blue exclusion test in mixed glial cells; format: cell-based, rat; details: 30 min
Method: 6 × 10^5 mixed glial cells were seeded in a six well plate and after 24 h incubated with C2 10 nM alone or in presence of CK cocktail. After 30 min at 37 °C cells were detached with Trypsin-EDTA solution and 10 µL of cells were added to 40 μL of 0.4% trypan blue solution. Cells were counted with a Neubauer chamber and the number of live cells was calculated.

A1AR = biological target: T3, A1AR (Homo sapiens, UniProt P30542); assay: A1AR affinity (Ki), method not described; format: binding; details: unpublished results of the authors; read-out: KiA1AR
T3 sequence (P30542 1-326): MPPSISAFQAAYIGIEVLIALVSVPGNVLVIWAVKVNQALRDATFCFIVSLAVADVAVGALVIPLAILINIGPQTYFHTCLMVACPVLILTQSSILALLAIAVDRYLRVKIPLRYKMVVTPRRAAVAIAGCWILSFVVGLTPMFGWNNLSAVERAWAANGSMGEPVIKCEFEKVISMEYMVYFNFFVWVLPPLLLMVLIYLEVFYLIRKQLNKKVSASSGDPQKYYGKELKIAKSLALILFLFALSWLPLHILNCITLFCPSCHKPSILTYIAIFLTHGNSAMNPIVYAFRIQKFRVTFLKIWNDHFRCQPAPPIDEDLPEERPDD

SH-SY5Y cells = system: SH-SY5Y cells; set-up: method as in PMID 30614535; details: different concentrations; cited from earlier work
human A1AR = biological target: human A1AR; set-up: method as in PMID 30614535; details: CHO cells stably transfected with human ARs; read-out: KiA1AR; cited from earlier work
hA1AR = system: hA1AR; set-up: method as in PMID 30614535; details: inhibition of adenyl cyclase activity induced by forskolin, cited from earlier work
human A3AR = biological target: human A3AR; set-up: method as in PMID 30614535; details: CHO cells stably transfected with human ARs; read-out: KiA3AR; cited from earlier work
human A2AAR = biological target: human A2AAR; set-up: method as in PMID 30614535; details: CHO cells stably transfected with human ARs; read-out: KiA2AAR; cited from earlier work
[3] = system: mouse ileum contractility; set-up: method as in PMID 30614535; details: ex vivo mouse ileum; cited from earlier work

T1 sequence (P29274 whole entry): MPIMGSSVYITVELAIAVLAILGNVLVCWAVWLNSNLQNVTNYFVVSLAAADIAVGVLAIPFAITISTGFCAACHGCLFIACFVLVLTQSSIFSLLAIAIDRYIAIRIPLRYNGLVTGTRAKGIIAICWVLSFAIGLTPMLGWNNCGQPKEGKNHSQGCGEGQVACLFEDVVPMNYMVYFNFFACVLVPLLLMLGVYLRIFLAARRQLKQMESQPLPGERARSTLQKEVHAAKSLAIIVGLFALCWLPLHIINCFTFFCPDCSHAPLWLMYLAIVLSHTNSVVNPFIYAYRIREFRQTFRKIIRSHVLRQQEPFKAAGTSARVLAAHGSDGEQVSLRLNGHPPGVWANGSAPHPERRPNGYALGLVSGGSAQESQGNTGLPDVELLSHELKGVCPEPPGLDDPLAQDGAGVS

| Structure (SMILES) | IC50 (A2AAR [1]) | Ki (A3AR) | blood brain barrier (BBB) crossing (Sprague Dawley rats; inferred from rescue of CNS insult after i.p. injection in rats) | short-term memory impairment by LPS (novel arm preference, Y Maze) (Sprague Dawley rats; 2.5 mg/kg i.p. 30 min after i.c.v. LPS) | short-term memory performance, compound alone (Y Maze) (Sprague Dawley rats; 2.5 mg/kg i.p.) | Ki (A2AAR [2]) | live cells vs. control (trypan blue) (mixed glial cells; 10 nM alone) | number of cells vs. control (trypan blue) (mixed glial cells; 10 nM, after aggression with CK cocktail) | Ki (A1AR) | protection from oxygen-glucose deprivation (OGD) (SH-SY5Y cells) | Ki (human A1AR) | α (intrinsic activity, partial agonist) (hA1AR) | EC50 (hA1AR; read-out: EC50A1AR) | Ki (human A3AR) | Ki (human A2AAR) | short-term memory impairment by LPS (novel arm preference, Y Maze) (Sprague Dawley rats; i.c.v. 5 µL of 7 µg/µL 15 min before i.c.v. LPS) | short-term memory performance, compound alone (Y Maze) (Sprague Dawley rats; i.c.v.) | maximal reduction of contractility relative to full agonist CCPA [3] |
| --- | --- | --- | --- | --- | --- | --- | --- | --- | --- | --- | --- | --- | --- | --- | --- | --- | --- | --- |
| CCn1c(Cl)nc2c(N)nc(OCCc3ccccc3)nc21 [Compound C2, 8-chloro-9-ethyl-2-phenethoxyadenine] | 0.251 µM | 0.227 µM | readily crosses the BBB | rescued | devoid of any effects in memory performance | 0.00075 µM | 123 ± 4.5 | 129 ± 3.5 | 0.017 µM | – | – | – | – | – | – | – | – | – |
| OC[C@H]1O[C@@H](n2cnc3c(NC4CCCC4)nc(Cl)nc32)C[C@@H]1O [Compound C1, 2-chloro-N^6-cyclopentyl-2′-deoxyadenosine] | – | – | – | – | – | – | – | – | – | protect SH-SY5Y cells from oxygen-glucose deprivation (OGD) | 0.55 µM | 0.70 | 0.832 µM | 5.56 µM | 24.8 µM | rescued | reduction in the short-term memory performance | 75% |
